Results as given in US20240174608A1, “COMPOUNDS FOR BRAIN IMAGING” (The General Hospital Corporation, priority 2021, published 2024).

Tests used:
[1] = system: NAD glycohydrolase (NADase); settings: at 100 μM; cited from earlier work
[2] = system: histone deacetylases (HDACs); settings: at 100 μM; cited from earlier work
[3] = NHP arterial plasma analysis; settings: baboon
Protocol: (§2) Atropine 0.05 mg/kg was used intramuscularly to prevent excessive secretion (15 or 30 min of ketamine and xylazine). Anesthesia was induced with intramuscular xylazine (0.5-2.0 mg/kg) and ketamine (10 mg/kg). […] PET/MR images were acquired in a Biograph mMR scanner (Siemens Healthcare, Erlangen, Germany), and PET compatible 8-channel coil arrays for NHP brain imaging with a PET resolution of ˜5 mm at isocenter. Dynamic PET image acquisition was initiated followed by administration of [^11C]8 in a homogeneous solution of 10% ethanol and 90% isotonic saline. A high-resolution structural MRI using [sequence] sequence was acquired about 30 min post-radiotracer administration for anatomical co-registration. Dynamic PET data were acquired and stored in list mode. After corrected for attenuation, scatter, and decay, the PET images were reconstructed using a 3D-OSEM method. […] Volumes of interests were placed referencing the MRI template. Time-activity curves were exported in terms of decay corrected activity at specified time points with gradually increasing intervals. The time-activity curves were expressed as SUV.

[4] = biological target: T1, SIRT1 (Mus musculus, UniProt Q923E4); test: Rodent PET/CT blocking studies (in vivo specificity); set-up: from tissue; host or cells: brain and other organs of living C57BL/6 mice; species or system C57BL/6 mice; settings: for specific binding in brain: at 60 min
T1 sequence (Q923E4 1-737): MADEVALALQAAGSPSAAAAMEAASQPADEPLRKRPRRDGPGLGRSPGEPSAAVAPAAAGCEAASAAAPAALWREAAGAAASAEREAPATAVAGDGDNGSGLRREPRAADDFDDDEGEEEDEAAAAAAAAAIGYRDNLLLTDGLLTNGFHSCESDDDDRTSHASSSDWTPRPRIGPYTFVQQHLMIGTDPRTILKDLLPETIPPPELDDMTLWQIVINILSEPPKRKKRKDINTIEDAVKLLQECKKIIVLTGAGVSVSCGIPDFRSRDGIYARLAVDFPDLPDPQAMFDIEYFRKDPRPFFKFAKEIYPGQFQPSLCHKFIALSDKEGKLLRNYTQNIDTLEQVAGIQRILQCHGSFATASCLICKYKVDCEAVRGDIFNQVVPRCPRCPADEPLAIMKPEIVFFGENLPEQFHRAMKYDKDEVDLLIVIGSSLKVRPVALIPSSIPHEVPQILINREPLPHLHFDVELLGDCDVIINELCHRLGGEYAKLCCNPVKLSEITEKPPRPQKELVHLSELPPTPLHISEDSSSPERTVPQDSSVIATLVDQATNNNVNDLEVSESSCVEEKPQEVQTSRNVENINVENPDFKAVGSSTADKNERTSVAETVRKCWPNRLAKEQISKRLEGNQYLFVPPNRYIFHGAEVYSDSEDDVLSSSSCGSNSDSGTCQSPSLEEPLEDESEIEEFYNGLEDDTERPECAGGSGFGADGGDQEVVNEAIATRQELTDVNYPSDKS
From the text: (§1) C57BL/6 mice were used for baseline and blocking studies (25-30 g, male; n=6 for baseline, n=5 for blocking with the pre-treatment of compound 8, and n=6 for blocking with the pre-treatment of Ex-527), and B6SJL wild-type and 5×FAD transgenic mice (20-25 g, male; n=4 for wild-type mice and n=4 for 5×FAD transgenic mice) were included to evaluate the [^11C]8 in a model of AD. All animals were anesthetized with inhalational isoflurane at 3% in a carrier of 2 L/min medical oxygen, and maintained at 2% isoflurane for the duration of the scan. The mice were fixed on the bed of a Triumph Trimodality PET/CT scanner (Gamma Medica, Northridge, CA) in the prone position, and injected with [^11C]8 (150-200 μL, ˜200 μCi) via a lateral tail vein catheterization at the start of PET acquisition. For blocking studies, compound 8 (5 mg/kg, iv) or Ex-527 (5 mg/kg, iv) was injected at 10 min prior to [^11C]8 injection. Dynamic PET acquisition lasted for 60 min and was followed by CT for anatomic coregistration. PET data were reconstructed using a 3D-MLEM method resulting in a full width at half-maximum resolution of 1 mm. Reconstructed images were exported from the scanner in DICOM format along with an anatomic CT. […] Volumes of interests, including the whole brain, striatum, cortex, thalamus, midbrain, cerebellum and brain stem were placed referencing the MRI template software. […] The time-activity curves were expressed as the percentage of injected dose per gram (% ID/g).

[5] = biological target: T1, SIRT1; test: Rodent PET/CT baseline imaging and whole body biodistribution; type: in vivo; set-up: from tissue; host or cells: brain and other organs of living C57BL/6 mice; settings: C57BL/6 mice
From the text: as §1

[6] = biological target: T1, SIRT1; test: PET/CT imaging in 5×FAD transgenic mice (AD model); type: in vivo; set-up: from tissue; host or cells: brain of living 5×FAD transgenic mice; settings: at 3 min
From the text: C57BL/6 mice were used for baseline and blocking studies (25-30 g, male; n=6 for baseline, n=5 for blocking with the pre-treatment of compound 8, and n=6 for blocking with the pre-treatment of Ex-527), and B6SJL wild-type and 5×FAD transgenic mice (20-25 g, male; n=4 for wild-type mice and n=4 for 5×FAD transgenic mice) were included to evaluate the [^11C]8 in a model of AD. All animals were anesthetized with inhalational isoflurane at 3% in a carrier of 2 L/min medical oxygen, and maintained at 2% isoflurane for the duration of the scan. The mice were fixed on the bed of a Triumph Trimodality PET/CT scanner (Gamma Medica, Northridge, CA) in the prone position, and injected with [^11C]8 (150-200 μL, ˜200 μCi) via a lateral tail vein catheterization at the start of PET acquisition. For blocking studies, compound 8 (5 mg/kg, iv) or Ex-527 (5 mg/kg, iv) was injected at 10 min prior to [^11C]8 injection. Dynamic PET acquisition lasted for 60 min and was followed by CT for anatomic coregistration. PET data were reconstructed using a 3D-MLEM method resulting in a full width at half-maximum resolution of 1 mm. Reconstructed images were exported from the scanner in DICOM format along with an anatomic CT. […] The time-activity curves were expressed as the percentage of injected dose per gram (% ID/g).

[7] = system: SIRT1; test: NHP PET/MR brain imaging; settings: baboon
Protocol: as §2

[8] = baseline whole body biodistribution

Structure (SMILES)	inhibitory effect on NAD glycohydrolase (NADase) [1]	inhibitory effect on class VII histone deacetylases (HDACs) [2]	arterial plasma radioactivity remaining (of the total radioactivity) ([3]; after 10 min)	parent compound in plasma (stability in plasma over time) ([3]; at 30 min)	brain uptake plateau ([4]; at 5 min, pre-treatment with compound 8 (5 mg/kg, iv)) [% ID/g]	specific binding in brain ([4]; blocking by pre-treatment with Ex-527 (5 mg/kg, iv) 10 min prior) [%]	specific binding in brain ([4]; self-blocking, pre-treatment with compound 8 (5 mg/kg, iv) 10 min prior) [%]	specific binding in blood, heart and lung ([4]; both blocking experiments)	specific binding in liver and kidney ([4]; both blocking experiments)	radioactivity in liver and kidney [5, 8] [% ID/g]	uptake in blood [5, 8]	BBB penetration ([5]; baseline)	time to reach plateau of brain time course ([5]; baseline)	maximum radioactivity accumulation in the whole brain ([5]; baseline, iv tail vein) [% ID/g]	washout ratio % ID/g 5 min / % ID/g 60 min ([5]; baseline, brain)	brain uptake plateau [6] [% ID/g]	uptake in midbrain [7] [SUV]	uptake in thalamus [7] [SUV]	peak whole brain uptake ([7]; intravenous)	time to peak concentration in whole brain ([7]; intravenous)
NC(=O)C1CCCc2c1[nH]c1ccc(Cl)cc21 (centres unmarked) [Ex-527]	no inhibitory effect	no inhibitory effect																		
[11CH3]c1ccc2[nH]c3c(c2c1)CCCC3C(N)=O (centres unmarked) [[^11C]8, 6-[^11C]methyl-2,3,4,9-tetrahydro-1H-carbazole-1-carboxamide]			less than 10%	more than 30%	6.0	62	68	abundant specific binding	No specific binding	> 10	relatively low uptake	penetrated the BBB	around 5 min	7.5	1.01	6.3	4.1	3.6	greater than 2.9 SUV	approximately 4 min
